Source: patent US7696129B2, “Substituted aromatic amide derivative, intermediate thereof, agrohorticultural insecticide containing thereof and method for the use thereof” (Nihon Nohyaku Co., Ltd., priority 2001, dated 2010)

Experiments:
Type in all cases: in vivo
[1] = system: Diamond Back Moth (Plutella xylostella); assay: Test Example 1: insecticidal effect on diamond back moth, immersion of Chinese cabbage seedling with eggs; conditions: 50 ppm, seedling with eggs immersed about 30 seconds, 25° C., six days after the immersion
Source text: Insecticidal Effect on Diamond Back Moth (Plutella xylostella)
Adult diamond back moths were released and allowed to oviposit on a Chinese cabbage seedling. Two days after the release, the seedling having the eggs deposited thereon was immersed for about 30 seconds in a liquid chemical prepared by diluting a preparation containing each compound listed in Tables 4 to 9 as an active ingredient to adjust the concentration to 50 ppm. After air-dryness, it was allowed to stand in a room thermostatted at 25° C. Six days after the immersion, the hatched insects were counted. The mortality was calculated according to the following equation and the insecticidal effect was judged according to the criterion shown below. The test was carried out with triplicate groups of 10 insects.

[2] = system: Common Cutworm (Spodoptera litura); assay: Test Example 2: insecticidal effect on common cutworm, cabbage leaf immersion; conditions: 50 ppm, cabbage leaf immersed about 30 seconds, second-instar larvae, 25° C., eight days after the inoculation
Source text: Insecticidal Effect on Common Cutworm (Spodoptera litura)
A piece of cabbage leaf (cultivar; Shikidori) was immersed for about 30 seconds in a liquid chemical prepared by diluting a preparation containing each compound listed in Tables 4 to 9 as an active ingredient to adjust the concentration to 50 ppm. After air-dryness, it was placed in a plastic Petri dish with a diameter of 9 cm and inoculated with second-instar larvae of common cutworm, after which the dish was closed and then allowed to stand in a room thermostatted at 25° C. Eight days after the inoculation, the dead and alive were counted. The mortality was calculated according to the following equation and the insecticidal effect was judged according to the criterion shown in Test Example 1. The test was carried out with triplicate groups of 10 insects.

[3] = system: Smaller Tea Tortrix (Adxophyes sp.); assay: Test Example 3: insecticidal effect on smaller tea tortrix, tea leaf immersion; conditions: 50 ppm, tea leaves immersed about 30 seconds, larvae, 25° C., humidity 70%, eight days after the inoculation
Experimental: Insecticidal Effect on Smaller Tea Tortrix (Adxophyes sp.)
Tea leaves were immersed for about 30 seconds in a liquid chemical prepared by diluting a preparation containing each compound listed in Tables 1 to 3 as an active ingredient to adjust the concentration to 50 ppm. After air-dryness, the tea leaves were placed in a plastic Petri dish with a diameter of 9 cm and inoculated with larvae of smaller tea tortrix, after which the dish was allowed to stand in a room thermostatted at 25° C. and having a humidity of 70%. Eight days after the inoculation, the dead and alive were counted and the insecticidal effect was judged according to the criterion shown in Test Example 1. The test was carried out with triplicate groups of 10 insects.

SMILES | Test Example 1 (insecticidal effect, mortality criterion) [1] | Test Example 2 (insecticidal effect, mortality criterion) [2] | Test Example 3 (insecticidal effect, mortality criterion) [3]
CSCC(C)(C)NC(=O)c1c(I)cccc1C(=O)Nc1ccc(C(C(F)(F)F)C(F)(F)F)cc1Cl [5-52] | A (Mortality 100%) | A (Mortality 100%) | A (Mortality 100%)
CSCC(C)(C)NC(=O)c1c(I)cccc1C(=O)Nc1ccc(C(C(F)(F)F)C(F)(F)F)cc1Br [5-53] | A (Mortality 100%) | A (Mortality 100%) | A (Mortality 100%)
C[S+]([O-])CC(C)(C)NC(=O)c1c(I)cccc1C(=O)Nc1ccc(C(C(F)(F)F)C(F)(F)F)cc1Br (stereo not drawn) [5-54] | A (Mortality 100%) | A (Mortality 100%) | A (Mortality 100%)
CSCC(C)(C)NC(=O)c1c(I)cccc1C(=O)Nc1ccc(C(C(F)(F)F)C(F)(F)F)cc1I [5-55] | A (Mortality 100%) | A (Mortality 100%) | A (Mortality 100%)
C[S+]([O-])CC(C)(C)NC(=O)c1c(I)cccc1C(=O)Nc1ccc(C(C(F)(F)F)C(F)(F)F)cc1I (stereo not drawn) [5-56] | A (Mortality 100%) | C (Mortality 89-80%) | A (Mortality 100%)
CSCC(C)(C)NC(=O)c1c(I)cccc1C(=O)Nc1ccc(C(C(F)(F)F)C(F)(F)F)cc1C#N [5-57] | A (Mortality 100%) | A (Mortality 100%) | A (Mortality 100%)
C[S+]([O-])CC(C)(C)NC(=O)c1c(I)cccc1C(=O)Nc1ccc(C(C(F)(F)F)C(F)(F)F)cc1C#N (stereo not drawn) [5-58] | A (Mortality 100%) | A (Mortality 100%) | A (Mortality 100%)
CC(C)(CS(C)(=O)=O)NC(=O)c1c(I)cccc1C(=O)Nc1ccc(C(C(F)(F)F)C(F)(F)F)cc1C#N [5-59] | A (Mortality 100%) | A (Mortality 100%) | A (Mortality 100%)
Cc1c(NC(=O)c2cccc(I)c2C(=O)NC(C)C)ccc(C(C(F)(F)F)C(F)(F)F)c1F [5-60] | A (Mortality 100%) | A (Mortality 100%) | A (Mortality 100%)
CSCC(C)(C)NC(=O)c1c(I)cccc1C(=O)Nc1ccc(C(C(F)(F)F)C(F)(F)F)c(F)c1C [5-61] | A (Mortality 100%) | A (Mortality 100%) | A (Mortality 100%)
Cc1cc(C(C(F)(F)F)C(F)(F)F)c(F)cc1NC(=O)c1cccc(I)c1C(=O)NC(C)C [5-62] | A (Mortality 100%) | A (Mortality 100%) | A (Mortality 100%)
CSCC(C)(C)NC(=O)c1c(I)cccc1C(=O)Nc1cc(F)c(C(C(F)(F)F)C(F)(F)F)cc1C [5-63] | A (Mortality 100%) | A (Mortality 100%) | A (Mortality 100%)
CSCC(C)(C)NC(=O)c1c(I)cccc1C(=O)Nc1ccc(C(C(F)(F)F)C(F)(F)F)c(Cl)c1C [5-66] | A (Mortality 100%) | A (Mortality 100%) | A (Mortality 100%)
Cc1cc(C(C(F)(F)F)C(F)(F)F)cc(C)c1NC(=O)c1cccc(I)c1C(=O)NC(C)C [5-67] | A (Mortality 100%) | E (Mortality 49% or less) | A (Mortality 100%)
CSCC(C)(C)NC(=O)c1c(I)cccc1C(=O)Nc1c(C)cc(C(C(F)(F)F)C(F)(F)F)cc1C [5-68] | A (Mortality 100%) | E (Mortality 49% or less) | E (Mortality 49% or less)
CSCC(C)(C)NC(=O)c1c(I)cccc1C(=O)Nc1ccc(C(C(F)(F)F)C(F)(F)F)c(OC(C)C)c1 [5-70] | A (Mortality 100%) | E (Mortality 49% or less) | E (Mortality 49% or less)
CSCC(C)(C)NC(=O)c1c(I)cccc1C(=O)Nc1ccc(C(C(F)(F)F)C(F)(F)C(F)(F)F)cc1C (stereo not drawn) [5-71] | A (Mortality 100%) | A (Mortality 100%) | A (Mortality 100%)
CCN(CC)C(=O)c1c(I)cccc1C(=O)Nc1ccc(C(C(F)(F)F)C(F)(F)F)cc1C [6-1] | A (Mortality 100%) | A (Mortality 100%) | A (Mortality 100%)
Cc1cc(C(C(F)(F)F)C(F)(F)F)ccc1N(C)C(=O)c1cccc(I)c1C(=O)NC(C)C [6-2] | A (Mortality 100%) | E (Mortality 49% or less) | A (Mortality 100%)
CSCC(C)(C)NC(=O)c1c(I)cccc1C(=O)N(C)c1ccc(C(C(F)(F)F)C(F)(F)F)cc1C [6-3] | A (Mortality 100%) | A (Mortality 100%) | A (Mortality 100%)
Cc1cc(C(C(F)(F)F)C(F)(F)F)ccc1NC(=O)c1ncccc1C(=O)NC(C)C [7-1] | A (Mortality 100%) | E (Mortality 49% or less) | A (Mortality 100%)
CSCC(C)(C)NC(=O)c1c(I)cccc1C(=O)Nc1ccc(C(C(F)(F)F)C(F)(F)F)nc1 [8-1] | A (Mortality 100%) | C (Mortality 89-80%) | E (Mortality 49% or less)
C[S+]([O-])CC(C)(C)NC(=O)c1c(I)cccc1C(=O)Nc1ccc(C(C(F)(F)F)C(F)(F)F)nc1 (stereo not drawn) [8-2] | A (Mortality 100%) | E (Mortality 49% or less) | E (Mortality 49% or less)
CC(C)(CS(C)(=O)=O)NC(=O)c1c(I)cccc1C(=O)Nc1ccc(C(C(F)(F)F)C(F)(F)F)nc1 [8-3] | A (Mortality 100%) | E (Mortality 49% or less) | A (Mortality 100%)
C[S+]([O-])CC(C)(C)NC(=O)c1c(I)cccc1C(=O)Nc1ccc(C(C(F)(F)F)C(F)(F)F)nc1Cl (stereo not drawn) [8-5] | A (Mortality 100%) | A (Mortality 100%) | A (Mortality 100%)
